Two compounds from patent US5683895A, “9-deazaadenosine and its 5'-α-D-glycopyranoside isolated from the cyanobacterium Anabaena affinis strain VS-1” (priority 1995, dated 1997) can be followed below.

The structures appear in SMILES notation. Converted amounts (≈) assume the structure as drawn.

Series [1] concerns L1210 murine leukemia cells. The series is described as follows: Cytotoxicity to L1210 murine leukemia cells. The series is classed as cell-based. Conditions: Mus musculus.
Series [2] in a line: Lethal toxicity to the aquatic invertebrate Ceriodaphnia dubia (acute 48 hr and chronic 7 day). Conditions: in vivo.

With `Nc1ncnc2c([C@@H]3O[C@H](CO[C@H]4O[C@H](CO)[C@@H](O)[C@H](O)[C@H]4O)[C@@H](O)[C@H]3O)c[nH]c12` [Compound 1, 9-deazaadenosine 5'-α-D-glucopyranoside], inhibition in series [1] was half-maximal at 10 ng/mL (≈ 0.0233 µM) (IC50). In series [2], this compound displayed an LC50 at 48 h of 0.5 µg/mL (≈ 1.17 µM) and an LC50 at 168 h of 0.3 µg/mL (≈ 0.7 µM).
`Nc1ncnc2c([C@@H]3O[C@H](CO)[C@@H](O)[C@H]3O)c[nH]c12` [Compound 2, 9-deazaadenosine] gave an IC50 in series [1] of 2 ng/mL (≈ 0.00751 µM). In series [2], this compound yielded an LC50 at 48 h of 0.3 µg/mL (≈ 1.13 µM) and an LC50 at 168 h of 0.1 µg/mL (≈ 0.376 µM).
